Measurements as given in US20130338183A1, “COMPOSITIONS AND METHODS FOR MOBILIZING STEM CELLS” (The Johns Hopkins University, priority 2010, published 2013).

Test system: Lin-CD133+ cells in peripheral blood
Test: Mobilization of bone marrow stem cells: Lin-CD133+ cells in peripheral blood by CBC and flow cytometry after subcutaneous injection
Type: in vivo
Details: low dose FK-506 (0.05 mg/kg, 0.1 mg/kg) subcutaneous, 3 hours after injection, Lewis rats
Text: Rat Strains and Care. Lewis (RT1^1) rats were purchased from Harlan ague-Dawley (Indianapolis, Ind.) and used at 8-10 weeks of age. Animals were maintained in the specific pathogen-free facility of Johns Hopkins Medical Institutions. Animals were cared for according to NIH guidelines and under a protocol approved by the Johns Hopkins University Animal Care Committee.
Experimental Groups and Animal Treatment. Lewis rats were divided by six groups including control group (treated with same volume of saline) and low dose of FK-506 (0.05 mg, 0.1 mg or 1.0 mg/kg). FK506 was injected subcutaneously. Animals were sacrificed at 3 hours after injection. Spleen and peripheral blood were collected. Blood cell count was performed in animal pathology laboratory at Johns Hopkins.
Flow Cytometry. Single-cell suspensions (5×10^5) of peripheral blood monocytes were analyzed for lineage negative and CD133 expression. Nonspecific antibody binding was blocked with goat and rat serum (Sigma) for 30 minutes.
In this study, lineage negative (Lin−) CD133+ stem cell population in peripheral blood and spleen were quantified after FK-506 treatment. Complete blood count (CBC) was measured and stem cell markers were quantified by flow cytometry. The absolute number of stem cells was calculated as WBC (−thous./uL)×% of stem cells.

For `C=CC[C@@H]1/C=C(\C)C[C@H](C)C[C@H](OC)[C@H]2O[C@@](O)(C(=O)C(=O)N3CCCC[C@H]3C(=O)O[C@H](/C(C)=C/[C@@H]3CC[C@@H](O)[C@H](OC)C3)[C@H](C)[C@@H](O)CC1=O)[C@H](C)C[C@@H]2OC` [FK-506, Tacrolimus], the “increase of absolute number of Lin-CD133+ cells in peripheral blood compared to saline treated animals” value was “about 3 times”.
